Test results as given in patent publication US8530650B2, “2, 5-diamino-substituted pyrido [4, 3-D] pyrimidines as autotaxin inhibitors against cancer” (MERCK PATENT GmbH, priority 2008, dated 2013).

Molecular target: T1, recombinant autotaxin (Homo sapiens, UniProt Q13822)
T1 construct: made in house; host or cells: Hi5 insect cells (baculovirus)
Assay: Autotaxin assay (Amplex Red, LPC substrate)
Type: biochemical
Conditions: 75 μM LPC, Amplex Red fluorescence, ten 1:3 dilutions starting at 30 μM
In short: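 Baculovirus (Hi5)-expressed autotaxin (16 ng) was preincubated with compound 30 min at 22° C., then reacted with 75 μM final egg LPC for 90 min at 37° C.; choline released was coupled via choline oxidase/peroxidase to Amplex Red, fluorescence read kinetically (ex 485/em 612 nm). IC50 from 10-point 1:3 dilutions from 30 μM, duplicates, normalized to 500 μM C14 LPA as 0%.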

| SMILES | IC50 [µM] |
| --- | --- |
| Fc1ccc(Nc2nccc3nc(NCc4ccc(Cl)cc4)ncc23)cc1 [Compound 42, N2-(4-Chloro-benzyl)-N5-(4-fluoro-phenyl)-pyrido[4,3-d]pyrimidine-2,5-diamine] | < 30 |
| C=CCNC(=O)C1CCN(c2nccc3nc(NCc4ccccc4Cl)ncc23)CC1 [Compound 71, 1-[2-(2-Chloro-benzylamino)-pyrido[4,3-d]pyrimidin-5-yl]-piperidine-4-carboxylic acid allylamide] | < 30 |
| COc1ccccc1CNc1ncc2c(Nc3ccc(F)cc3)nccc2n1 [Compound 33, N5-(4-Fluoro-phenyl)-N2-(2-methoxy-benzyl)-pyrido[4,3-d]pyrimidine-2,5-diamine] | < 30 |
| Fc1ccc(N2CCN(c3nccc4nc(NCc5ccccc5Cl)ncc34)CC2)cc1 [Compound 106, (2-Chloro-benzyl)-{5-[4-(4-fluoro-phenyl)-piperazin-1-yl]-pyrido[4,3-d]pyrimidin-2-yl}-amine] | < 5 |
| O=C(Cc1ccncc1)N1CCN(c2nccc3nc(NCc4ccccc4Cl)ncc23)CC1 [Compound 138, 1-{4-[2-(2-Chloro-benzylamino)-pyrido[4,3-d]pyrimidin-5-yl]-piperazin-1-yl}-2-pyridin-4-yl-ethanone] | < 30 |
| CC(C)CNc1nccc2nc(NCc3ccc(F)cc3)ncc12 [Compound 30, N2-(4-Fluoro-benzyl)-N5-isobutyl-pyrido[4,3-d]pyrimidine-2,5-diamine] | < 30 |
| CCN(CC)CCNC(=O)C1CCN(c2nccc3nc(NCc4ccccc4Cl)ncc23)CC1 [Compound 96, 1-[2-(2-Chloro-benzylamino)-pyrido[4,3-d]pyrimidin-5-yl]-piperidine-4-carboxylic acid (2-diethylamino-ethyl)-amide] | < 5 |
| Cc1ccccc1Nc1nccc2nc(NCc3ccc(Cl)cc3)ncc12 [Compound 43, N2-(4-Chloro-benzyl)-N5-o-tolyl-pyrido[4,3-d]pyrimidine-2,5-diamine] | < 30 |
| NC(=O)C1CCN(c2nccc3nc(NCc4ccccc4Cl)ncc23)CC1 [Compound 107, 1-[2-(2-Chloro-benzylamino)-pyrido[4,3-d]pyrimidin-5-yl]-piperidine-4-carboxylic acid amide] | < 5 |
| N[C@H]1CCN(CC(=O)N2CCN(c3nccc4nc(NCc5ccccc5Cl)ncc34)CC2)C1=O [Compound 133, (S)-3-Amino-1-(2-{4-[2-(2-chloro-benzylamino)-pyrido[4,3-d]pyrimidin-5-yl]-piperazin-1-yl}-2-oxo-ethyl)-pyrrolidin-2-one] | < 30 |
| O=C(NCc1cccnc1)C1CCN(c2nccc3nc(NCc4ccccc4Cl)ncc23)CC1 [Compound 62, 1-[2-(2-Chloro-benzylamino)-pyrido[4,3-d]pyrimidin-5-yl]-piperidine-4-carboxylic acid (pyridin-3-ylmethyl)-amide] | < 5 |
| Cc1ccc(CNc2ncc3c(Nc4ccc(F)cc4C)nccc3n2)cc1 [Compound 19, N5-(4-Fluoro-2-methyl-phenyl)-N2-(4-methyl-benzyl)-pyrido[4,3-d]pyrimidine-2,5-diamine] | < 30 |
| O=C(CN1CCN(c2nccc3nc(NCc4ccccc4Cl)ncc23)CC1)Nc1cccnc1 [Compound 108, 2-{4-[2-(2-Chloro-benzylamino)-pyrido[4,3-d]pyrimidin-5-yl]-piperazin-1-yl}-N-pyridin-3-yl-acetamide] | < 10 |
| Cc1ccccc1Nc1nccc2nc(NCc3ccc(F)cc3)ncc12 [Compound 22, N2-(4-Fluoro-benzyl)-N5-o-tolyl-pyrido[4,3-d]pyrimidine-2,5-diamine] | < 30 |
| COc1ccc(Nc2nccc3nc(NCc4ccc(Cl)cc4)ncc23)cc1 [Compound 44, N2-(4-Chloro-benzyl)-N5-(4-methoxy-phenyl)-pyrido[4,3-d]pyrimidine-2,5-diamine] | < 30 |
| CCN(CC)C(=O)C1CCCN(c2nccc3nc(NCc4ccccc4Cl)ncc23)C1 (centres unmarked) [Compound 91, 1-[2-(2-Chloro-benzylamino)-pyrido[4,3-d]pyrimidin-5-yl]-piperidine-3-carboxylic acid diethylamide] | < 30 |
| COC(=O)c1ccc(Nc2nccc3nc(NCc4ccc(Cl)cc4)ncc23)cc1 [Compound 50, 4-[2-(4-Chloro-benzylamino)-pyrido[4,3-d]pyrimidin-5-ylamino]-benzoic acid methyl ester] | < 30 |
| COc1ccc(Nc2nccc3nc(NCc4ccccc4OC)ncc23)c(OC)c1 [Compound 40, N5-(2,4-Dimethoxy-phenyl)-N2-(2-methoxy-benzyl)-pyrido[4,3-d]pyrimidine-2,5-diamine] | < 30 |
| COc1ccc(Nc2nccc3nc(NCc4ccccc4Cl)ncc23)cc1OC [Compound 12, N2-(2-Chloro-benzyl)-N5-(3,4-dimethoxy-phenyl)-pyrido[4,3-d]pyrimidine-2,5-diamine] | < 30 |

| SMILES | IC50 [µM] |
| --- | --- |
| Fc1ccc(CNc2ncc3c(Nc4ccc(F)cc4)nccc3n2)cc1 [Compound 21, N2-(4-Fluoro-benzyl)-N5-(4-fluoro-phenyl)-pyrido[4,3-d]pyrimidine-2,5-diamine] | < 30 |
| O=C(Nc1cccnc1)C1CCCN(c2nccc3nc(NCc4ccccc4Cl)ncc23)C1 (centres unmarked) [Compound 82, 1-[2-(2-Chloro-benzylamino)-pyrido[4,3-d]pyrimidin-5-yl]-piperidine-3-carboxylic acid pyridin-3-ylamide] | < 5 |
| CCCNC(=O)C1CCCN(c2nccc3nc(NCc4ccccc4Cl)ncc23)C1 (centres unmarked) [Compound 85, 1-[2-(2-Chloro-benzylamino)-pyrido[4,3-d]pyrimidin-5-yl]-piperidine-3-carboxylic acid propylamide] | < 30 |
| COc1ccc(Nc2nccc3nc(NCc4ccc(Cl)cc4)ncc23)cc1OC [Compound 47, N2-(4-Chloro-benzyl)-N5-(3,4-dimethoxy-phenyl)-pyrido[4,3-d]pyrimidine-2,5-diamine] | < 30 |
| CC(=O)OCC(=O)N1CCN(c2nccc3nc(NCc4ccccc4Cl)ncc23)CC1 [Compound 126, Acetic acid 2-{4-[2-(2-chloro-benzylamino)-pyrido[4,3-d]pyrimidin-5-yl]-piperazin-1-yl}-2-oxo-ethyl ester] | < 5 |
| CN(C)C(=O)C1CCN(c2nccc3nc(NCc4ccccc4Cl)ncc23)CC1 [Compound 140, 1-[2-(2-Chloro-benzylamino)-pyrido[4,3-d]pyrimidin-5-yl]-piperidine-4-carboxylic acid dimethylamide] | < 30 |
| CN(C)CCNC(=O)C1CCN(c2nccc3nc(NCc4ccccc4Cl)ncc23)CC1 [Compound 64, 1-[2-(2-Chloro-benzylamino)-pyrido[4,3-d]pyrimidin-5-yl]-piperidine-4-carboxylic acid (2-dimethylamino-ethyl)-amide] | < 10 |
| COc1ccccc1CNc1ncc2c(N3CCC(C(=O)NCc4ccco4)CC3)nccc2n1 [Compound 74, 1-[2-(2-Methoxy-benzylamino)-pyrido[4,3-d]pyrimidin-5-yl]-piperidine-4-carboxylic acid (furan-2-ylmethyl)-amide] | < 30 |
| CC(C)NC(=O)C1CCN(c2nccc3nc(NCc4ccccc4Cl)ncc23)CC1 [Compound 67, 1-[2-(2-Chloro-benzylamino)-pyrido[4,3-d]pyrimidin-5-yl]-piperidine-4-carboxylic acid isopropylamide] | < 5 |
| COc1ccc(Nc2nccc3nc(NCc4ccc(F)cc4)ncc23)cc1 [Compound 23, N2-(4-Fluoro-benzyl)-N5-(4-methoxy-phenyl)-pyrido[4,3-d]pyrimidine-2,5-diamine] | < 30 |
| CC(=O)CCC(=O)N1CCN(c2nccc3nc(NCc4ccccc4Cl)ncc23)CC1 [Compound 123, 1-{4-[2-(2-Chloro-benzylamino)-pyrido[4,3-d]pyrimidin-5-yl]-piperazin-1-yl}-pentane-1,4-dione] | < 30 |
| COc1ccc(CNc2ncc3c(Nc4ccc5c(c4)OCO5)nccc3n2)cc1 [Compound 53, N5-Benzo[1,3]dioxol-5-yl-N2-(4-methoxy-benzyl)-pyrido[4,3-d]pyrimidine-2,5-diamine] | < 30 |
| O=C(NCc1cccnc1)C1CCCN(c2nccc3nc(NCc4ccccc4Cl)ncc23)C1 (centres unmarked) [Compound 81, 1-[2-(2-Chloro-benzylamino)-pyrido[4,3-d]pyrimidin-5-yl]-piperidine-3-carboxylic acid (pyridin-3-ylmethyl)-amide] | < 5 |
| COCCNC(=O)C1CCN(c2nccc3nc(NCc4ccccc4Cl)ncc23)CC1 [Compound 70, 1-[2-(2-Chloro-benzylamino)-pyrido[4,3-d]pyrimidin-5-yl]-piperidine-4-carboxylic acid (2-methoxy-ethyl)-amide] | < 5 |
| CCOc1ccccc1Nc1nccc2nc(NCc3ccccc3OC)ncc12 [Compound 32, N5-(2-Ethoxy-phenyl)-N2-(2-methoxy-benzyl)-pyrido[4,3-d]pyrimidine-2,5-diamine] | < 30 |
| CCOC(=O)CCNC(=O)C1CCN(c2nccc3nc(NCc4ccccc4Cl)ncc23)CC1 [Compound 101, 3-({1-[2-(2-Chloro-benzylamino)-pyrido[4,3-d]pyrimidin-5-yl]-piperidine-4-carbonyl}-amino)-propionic acid ethyl ester] | < 30 |
| O=C(O)C1CCN(c2nccc3nc(NCc4ccccc4Cl)ncc23)CC1 [Compound 127, 1-[2-(2-Chloro-benzylamino)-pyrido[4,3-d]pyrimidin-5-yl]-piperidine-4-carboxylic acid] | < 5 |
| O=C(CCc1c[nH]cn1)N1CCN(c2nccc3nc(NCc4ccccc4Cl)ncc23)CC1 [Compound 122, 1-{4-[2-(2-Chloro-benzylamino)-pyrido[4,3-d]pyrimidin-5-yl]-piperazin-1-yl}-3-(1H-imidazol-4-yl)-propan-1-one] | < 5 |
| Fc1ccc(CNc2ncc3c(NCc4ccc5nonc5c4)nccc3n2)cc1 [Compound 29, N5-Benzo[1,2,5]oxadiazol-5-ylmethyl-N2-(4-fluoro-benzyl)-pyrido[4,3-d]pyrimidine-2,5-diamine] | < 30 |
